Laboratory results taken from US9328085B2, “Heterocyclic compounds and expansion agents for hematopoietic stem cells” (NISSAN CHEMICAL INDUSTRIES, LTD., priority 2009, dated 2016).

Legend:
[1] = tested on: CD34^+CD38^− cells; assay: Expansion of CD34+CD38- cells using human cord blood-derived CD34+ cells (Assay Example 1); type: cell-based; conditions: for Expansion efficiency (CD34^+CD38^− cells): 100 ng/mL SCF, 7 days, based on the number of CD34^+CD38^− cells in the absence of compound; for Comparison with TPO: 3 μg/mL compound vs TPO 10 ng/mL, CD34^+CD38^− cells
Experimental: (§1) Human cord blood-derived CD34^+ cells were purchased from Lonza and plated on a 24-well plate (Corning) (10000 cells/1 mL/well). As the culture medium, StemSpan SFEM (StemCell Technologies) containing 100 ng/mL SCF (Wako Pure Chemical Industries) was used, and one of Compounds No. 1 to 72 dissolved in dimethyl sulfoxide was added in an amount of 0.1% (v/v) to a final concentration of 1 or 3 μg/mL. As a positive control, TPO (PeproTech) was used at a final concentration of 10 ng/mL.
(§2) After the cells were incubated in liquid culture at 37° C. for 7 days in a CO2 incubator (5% CO2), the number of viable cells was counted by trypan blue assay. The number of CD34^+CD38^− cells was calculated as follows. After the incubation, the cells in the liquid culture was stained with a CD34 antibody (APC, Becton, Dickinson and Company) and a CD38 antibody (PE, Becton, Dickinson and Company), then washed with PBS(−) containing 2% (v/v) FBS and stained with propidium iodide (Sigma-Aldrich Japan) added to a final concentration of 5 μg/mL. The stained cells were analyzed with a BD FACSCANTO™ II flow cytometer (Becton, Dickinson and Company) to determined the proportions of CD34^+ cells and CD34^+CD38^− cells, which was multiplied by the number of viable cells to calculate the numbers of CD34^+ cells and CD34^+CD38^− cells.
(§3) The expansion efficiencies in the presence of 1 or 3 μg/mL of compounds based on the number of CD34^+ cells in the absence of them are shown in Tables 3-1 and 3-2 on a scale of A for expansion efficiencies of 6 or greater, B for expansion efficiencies of at least 4 and less than 6, and C for expansion efficiencies of at least 2 and less than 4. The expansion efficiencies in the presence of 1 or 3 μg/mL of compounds based on the number of CD34^+CD38^− cells in the absence of them are shown in Tables 4-1 and 4-2 on a scale of A for expansion efficiencies of 10 or greater, B for expansion efficiencies of at least 5 and less than 10, and C for expansion efficiencies of at least 3 and less than 5. Further, in Table 3, the compounds with an expansion efficiency twice or more greater than that of TPO are marked with O.

[2] = tested on: CD34^+ cells; assay: Expansion of CD34+ cells using human cord blood-derived CD34+ cells (Assay Example 1); type: cell-based; conditions: 100 ng/mL SCF, 7 days, based on the number of CD34^+ cells in the absence of compound
Experimental: as §1, §2, §3

Structure (SMILES)	Expansion efficiency (CD34^+CD38^− cells) ([1]; 1 μg/mL compound)	Expansion efficiency (CD34^+ cells) ([2]; 1 μg/mL compound)	Expansion efficiency (CD34^+CD38^− cells) ([1]; 3 μg/mL compound)	Expansion efficiency (CD34^+ cells) ([2]; 3 μg/mL compound)	Comparison with TPO [1]
CC(=NNC(=O)c1ccc(C(=O)NCc2ccc(C(=O)NCCO)cc2)s1)c1csc(-c2ccc(C(C)(C)C)cc2)c1O [compound 14]	A (A for expansion efficiencies of 10 or greater)	A (A for expansion efficiencies of 6 or greater)			
CCCCOCCOCCNC(=O)c1ccc(CNC(=O)c2ccc(C(=O)NN=C(C)c3csc(-c4ccc(Cl)c(Cl)c4)c3O)s2)cc1 [compound 34]			B (B for expansion efficiencies of at least 5 and less than 10)	C (C for expansion efficiencies of at least 2 and less than 4)	
C/C(=N\NC(=O)c1ccc(C(=O)NCc2ccc(S(=O)(=O)NCCOCCO)cc2)s1)c1csc(-c2ccc(Cl)c(Cl)c2)c1O [compound 1]			A (A for expansion efficiencies of 10 or greater)	C (C for expansion efficiencies of at least 2 and less than 4)	
COc1ccc(-c2scc(C(C)=NNC(=O)c3ccc(C(=O)NCc4ccc(CC(N)=O)cc4)s3)c2O)cc1 [compound 72]			B (B for expansion efficiencies of at least 5 and less than 10)	B (B for expansion efficiencies of at least 4 and less than 6)	
CC(=NNC(=O)c1ccc(C(=O)NCc2ccc(CC(N)=O)cc2)s1)c1csc(-c2ccc(Cl)cc2)c1O [compound 70]			A (A for expansion efficiencies of 10 or greater)	A (A for expansion efficiencies of 6 or greater)	∘
CC(=NNC(=O)c1ccc(C(=O)NCc2ccc(C(=O)NCCN3CCOCC3)cc2)s1)c1csc(-c2ccc(Cl)c(Cl)c2)c1O [compound 19]			A (A for expansion efficiencies of 10 or greater)	C (C for expansion efficiencies of at least 2 and less than 4)	
CC(=NNC(=O)c1ccc(C(=O)NCc2ccc(C(=O)NCC3CCCO3)cc2)s1)c1csc(-c2ccc(Br)cc2)c1O (centres unmarked) [compound 12]			A (A for expansion efficiencies of 10 or greater)	A (A for expansion efficiencies of 6 or greater)	
CC(=NNC(=O)c1ccc(C(=O)NCc2ccc(C(=O)NCc3ccccn3)cc2)s1)c1csc(-c2ccc(C(C)(C)C)cc2)c1O [compound 5]			A (A for expansion efficiencies of 10 or greater)	B (B for expansion efficiencies of at least 4 and less than 6)	
CCCCOCCOCCNC(=O)c1ccc(CNC(=O)c2ccc(C(=O)NN=C(C)c3csc(-c4ccc(C(C)(C)C)cc4)c3O)s2)cc1 [compound 35]			B (B for expansion efficiencies of at least 5 and less than 10)	C (C for expansion efficiencies of at least 2 and less than 4)	
CC(=NNC(=O)c1ccc(C(=O)NCc2ccc(C(=O)NCCN(CCO)CCO)cc2)s1)c1csc(-c2ccc(Br)cc2)c1O [compound 24]			A (A for expansion efficiencies of 10 or greater)	A (A for expansion efficiencies of 6 or greater)	∘
CC(=NNC(=O)c1ccc(C(=O)NCc2ccc(C(=O)NCc3ccco3)cc2)s1)c1csc(-c2ccc(Br)cc2)c1O [compound 9]			B (B for expansion efficiencies of at least 5 and less than 10)	C (C for expansion efficiencies of at least 2 and less than 4)	
CC(=NNC(=O)c1ccc(C(=O)NCc2ccc(C(=O)NCC3CCCO3)cc2)s1)c1csc(-c2ccc(Cl)c(Cl)c2)c1O (centres unmarked) [compound 10]			A (A for expansion efficiencies of 10 or greater)	B (B for expansion efficiencies of at least 4 and less than 6)	
CC(=NNC(=O)c1ccc(C(=O)NCc2ccc(C(=O)NCCN3CCNCC3)cc2)s1)c1csc(-c2ccc(Cl)c(Cl)c2)c1O [compound 28]			A (A for expansion efficiencies of 10 or greater)	B (B for expansion efficiencies of at least 4 and less than 6)	
CC(=NNC(=O)c1ccc(C(=O)NCc2ccc(C(=O)NCCOCCO)cc2)s1)c1csc(-c2ccc(Cl)cc2)c1O [compound 63]			A (A for expansion efficiencies of 10 or greater)	A (A for expansion efficiencies of 6 or greater)	∘
COc1ccc(-c2scc(C(C)=NNC(=O)c3ccc(C(=O)NCc4ccc(C(=O)NCCOCCO)cc4)s3)c2O)cc1 [compound 65]			B (B for expansion efficiencies of at least 5 and less than 10)	C (C for expansion efficiencies of at least 2 and less than 4)	
CC(=NNC(=O)c1ccc(C(=O)NCc2ccc(CC(N)=O)cc2)s1)c1csc(-c2ccc(OC(F)(F)F)cc2)c1O [compound 71]			A (A for expansion efficiencies of 10 or greater)	A (A for expansion efficiencies of 6 or greater)	
CC(=NNC(=O)c1ccc(C(=O)NCc2ccc(CC(N)=O)cc2)s1)c1csc(-c2ccc(Cl)c(Cl)c2)c1O [compound 66]			A (A for expansion efficiencies of 10 or greater)	C (C for expansion efficiencies of at least 2 and less than 4)	
CCCCOCCOCCNC(=O)c1ccc(CNC(=O)c2ccc(C(=O)NN=C(C)c3csc(-c4ccc(Br)cc4)c3O)s2)cc1 [compound 36]			B (B for expansion efficiencies of at least 5 and less than 10)	C (C for expansion efficiencies of at least 2 and less than 4)	
CC(=O)NCc1ccc(CNC(=O)c2ccc(C(=O)NN=C(C)c3csc(-c4ccc(C(C)(C)C)cc4)c3O)s2)cc1 [compound 53]	B (B for expansion efficiencies of at least 5 and less than 10)	C (C for expansion efficiencies of at least 2 and less than 4)			
CC(=NNC(=O)c1ccc(C(=O)NCc2ccc(C(=O)NCCN3CCNCC3)cc2)s1)c1csc(-c2ccc(Br)cc2)c1O [compound 30]			A (A for expansion efficiencies of 10 or greater)	A (A for expansion efficiencies of 6 or greater)	∘
CC(=O)NCc1ccc(CNC(=O)c2ccc(C(=O)NN=C(C)c3csc(-c4ccc(Cl)cc4)c3O)s2)cc1 [compound 56]	A (A for expansion efficiencies of 10 or greater)	A (A for expansion efficiencies of 6 or greater)			
CC(=NNC(=O)c1ccc(C(=O)NCc2ccc(C(=O)NCCOCCO)cc2)s1)c1csc(-c2ccc(Cl)c(Cl)c2)c1O [compound 59]			A (A for expansion efficiencies of 10 or greater)	B (B for expansion efficiencies of at least 4 and less than 6)	∘
CC(=O)NCc1ccc(CNC(=O)c2ccc(C(=O)NN=C(C)c3csc(-c4ccc(OC(F)(F)F)cc4)c3O)s2)cc1 [compound 57]			A (A for expansion efficiencies of 10 or greater)	B (B for expansion efficiencies of at least 4 and less than 6)	
CC(=O)NCc1ccc(CNC(=O)c2ccc(C(=O)NN=C(C)c3csc(-c4ccc(C(F)(F)F)cc4)c3O)s2)cc1 [compound 55]	A (A for expansion efficiencies of 10 or greater)	A (A for expansion efficiencies of 6 or greater)			
CC(=NNC(=O)c1ccc(C(=O)NCc2ccc(C(=O)NCCN3CCOCC3)cc2)s1)c1csc(-c2ccc(Br)cc2)c1O [compound 21]			A (A for expansion efficiencies of 10 or greater)	A (A for expansion efficiencies of 6 or greater)	∘
COCCOCCNC(=O)c1ccc(CNC(=O)c2ccc(C(=O)NN=C(C)c3csc(-c4ccc(Br)cc4)c3O)s2)cc1 [compound 33]			A (A for expansion efficiencies of 10 or greater)	A (A for expansion efficiencies of 6 or greater)	∘
